Test results taken from paper PMC11203266, “Continuous evolution of compact protein degradation tags regulated by selective molecular glues” (Science (New York, N.Y.), 2024).

Target: T1, TUB (Homo sapiens, UniProt P50607)
T1 construct: endogenous in cells; host or cells: HEK293T
Assay: Western blot of TUB in HEK293T cells
Type: cell-based
Conditions: 100-10,000 nM
Experimental: HEK293T or K562 cells were plated at a density of 1.6 x 10^5 cells/well in a 24-well plate coated with poly-D-lysine (Corning) in 1 mL media (DMEM + 10% FBS for HEK293T cells and RPMI + 10% FBS for K562 cells). After 16–18 hrs, cells were treated with either DMSO or the indicated concentration of small molecules to a 0.5% final concentration of DMSO. Plates were incubated at 37 °C, 5% CO2 for 24 hours for all cell lines except endogenously tagged PLK1–SD40 HEK293T cells, which were incubated for 2 hours. Cells were washed with PBS and then lysed for 30 minutes at 4 °C in radioimmunoprecipitation assay (RIPA; 25 mM Tris-HCl, 150 mM NaCl, 1% NP-40, 1% sodium deoxycholate, 0.1% SDS, pH ~ 7.6) buffer containing 1 mM phenylmethylsulfonyl fluoride (PMSF; Sigma Aldrich) and 1 x EDTA-free protease inhibitor cocktail (Roche). Lysates were centrifuged for 20 min @18,000 x g to isolate the soluble fractions. Protein concentration in clarified lysates was quantified using Pierce BCA Protein Assay Kit (Thermo Scientific) according to the manufacturer’s protocol. Clarified lysates were mixed with NuPAGE LDS Sample Buffer (Thermo NP0007) containing 10 mM DTT and boiled for 10 minutes. Gel electrophoresis was performed on boiled samples using polyacrylamide gels (Invitrogen NP0329BOX) with equal amounts of total protein in each lane. […]
values were calculated using a Welch's t-test. […]

T1 sequence (P50607 whole entry): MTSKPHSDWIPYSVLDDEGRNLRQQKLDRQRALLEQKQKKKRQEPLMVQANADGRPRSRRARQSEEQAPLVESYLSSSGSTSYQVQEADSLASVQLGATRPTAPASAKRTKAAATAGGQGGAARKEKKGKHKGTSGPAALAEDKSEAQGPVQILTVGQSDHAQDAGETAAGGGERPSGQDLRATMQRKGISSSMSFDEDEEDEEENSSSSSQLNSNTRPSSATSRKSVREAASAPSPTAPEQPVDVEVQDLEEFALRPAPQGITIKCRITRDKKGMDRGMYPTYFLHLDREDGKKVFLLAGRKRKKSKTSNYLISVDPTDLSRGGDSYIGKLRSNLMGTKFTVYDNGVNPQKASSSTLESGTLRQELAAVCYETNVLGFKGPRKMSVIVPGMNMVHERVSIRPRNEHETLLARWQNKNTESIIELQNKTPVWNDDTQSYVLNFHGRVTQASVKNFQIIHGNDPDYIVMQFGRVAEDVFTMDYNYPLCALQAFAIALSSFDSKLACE

O=C1CCC(N2C(=O)c3ccc(N4CCOCC4)cc3C2=O)C(=O)N1 (stereo not shown) [PT-179]
TUB degradation (in words): does not degrade TUB
